According to patent US8895547B2, “Substituted phenyl-oxathiazine derivatives, method for producing them, drugs containing said compounds and the use thereof” (Sanofi, priority 2011, dated 2014):

Biological target: T1, human 11β-HSD1 (Homo sapiens, UniProt P28845)
T1 construct: host or cells: microsome fraction
Test: Enzymatic 11beta-HSD1 test (SPA-based detection)
Format: biochemical
Settings: human 11β-HSD1 microsome fraction, [1,2-3H]-cortisone, NADPH, 37° C. 1 hour
In short: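 Human 11β-HSD1 microsomes (0.2 µg protein) converted [1,2-3H]-cortisone ([…]) for 1 h at 37 °C. The reaction buffer was HEPES/KCl/NaCl/MgCl2 with 0.25 mM NADPH, with compounds added in DMSO. The reaction was stopped with SPA beads, anti-cortisol monoclonal antibody and 0.01 mM SSR110887; after 1 h at room temperature, [3H]-cortisol was scintillation-counted.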

T1 sequence (P28845 whole entry): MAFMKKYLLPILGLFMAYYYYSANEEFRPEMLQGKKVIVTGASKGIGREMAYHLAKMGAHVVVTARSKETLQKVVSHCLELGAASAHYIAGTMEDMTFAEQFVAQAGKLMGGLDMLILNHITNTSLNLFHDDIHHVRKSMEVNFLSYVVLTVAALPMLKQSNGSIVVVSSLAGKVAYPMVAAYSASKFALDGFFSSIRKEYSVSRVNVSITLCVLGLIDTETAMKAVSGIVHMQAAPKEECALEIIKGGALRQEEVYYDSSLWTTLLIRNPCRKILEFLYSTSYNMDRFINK

| Structure (SMILES) | IC50 [nM] |
| --- | --- |
| CC1(C)OC(N[C@@H](CCO)c2ccccc2F)=NS(=O)(=O)C1c1ccc(-c2cc(Cl)sc2Cl)cc1 (stereo partly drawn) [Example 92, (S)-3-{5-[4-(2,5-Dichlorothiophen-3-yl)-phenyl]-6,6-dimethyl-4,4-dioxo-5,6-dihydro-4H-4lambda6-[1,4,3]oxathiazin-2-ylamino}-3-(2-fluorophenyl)-propan-1-ol] | 23 |
| C[C@H](NC1=NS(=O)(=O)[C@H](c2ccc(-c3cncc(C(N)=O)c3)cc2)C(C)(C)O1)c1ccccc1F [Example 178, 5-(4-{(R)-2-[(S)-1-(2-fluorophenyl)-ethylamino]-6,6-dimethyl-4,4-dioxo-5,6-dihydro-4H-4lambda6-[1,4,3]oxathiazin-5-yl}-phenyl)-nicotinamide] | 3 |
| CC1(C)OC(N[C@@H](CCO)c2ccccc2F)=NS(=O)(=O)C1c1ccc(-c2cccc(C#N)c2)cc1 (some centres unmarked) [Example 93] | 6 |
| Cn1cc(-c2ccc(C3C(C)(C)OC(N[C@@H](CCO)c4ccccc4F)=NS3(=O)=O)cc2)cn1 (stereo partly drawn) [Example 124, (S)-3-{6,6-Dimethyl-5-[4-(1-methyl-1H-pyrazol-yl)-phenyl]-4,4-dioxo-5,6-dihydro-4H-4lambda6-[1,4,3]oxathiazin-2-ylamino}-3-(2-fluorophenyl)-propan-1-ol] | 8 |
| CC1(C)OC(N[C@@H](CCO)c2ccccc2)=NS(=O)(=O)C1(C)c1cccc(-c2cncnc2)c1 (stereo partly drawn) [Compound 40, (S)-3-Phenyl-3-[5,6,6-trimethyl-4,4-dioxo-5-(3-pyrimidin-5-ylphenyl)-5,6-dihydro-4H-4lambda6-[1,4,3]oxathiazin-2-ylamino]propan-1-ol] | 15 |
| Cc1ccccc1-c1ccc(C2(C)C(C)(C)OC(N[C@@H](CCO)c3ccccc3F)=NS2(=O)=O)cc1 (stereo partly drawn) [Example 79, (S)-3-(2-Fluorophenyl)-3-[5,6,6-trimethyl-5-(2′-methyl-biphenyl-4-yl)-4,4-dioxo-5,6-dihydro-4H-4lambda6-[1,4,3]oxathiazin-2-ylamino]-propan-1-ol] | 8 |
| Cc1n[nH]cc1-c1ccc(C2C(C)(C)OC(N[C@@H](CCO)c3ccccc3F)=NS2(=O)=O)cc1 (stereo partly drawn) [Example 115, (S)-3-{6,6-Dimethyl-5-[4-(3-methyl-1H-pyrazol-yl)-phenyl]-4,4-dioxo-5,6-dihydro-4H-4lambda6-[1,4,3]oxathiazin-2-ylamino}-3-(2-fluorophenyl)-propan-1-ol] | 5 |
| CC1(C)OC(N[C@@H](CCO)c2ccccc2)=NS(=O)(=O)C1c1cccc(OCc2ccccc2)c1 (stereo partly drawn) [Example 24, (S)-3-[5-(3-Benzyloxy-phenyl)-6,6-dimethyl-4,4-dioxo-5,6-dihydro-4H-4lambda6-[1,4,3]oxathiazin-2-ylamino]-3-phenyl-propan-1-ol] | 21 |
| CC1(C)OC(N[C@@H](CCO)c2ccccc2F)=NS(=O)(=O)C1c1ccc(-c2ccc(Cl)s2)cc1 (stereo partly drawn) [Example 91, (S)-3-{5-[4-(5-Chlorothiophen-2-yl)-phenyl]-6,6-dimethyl-4,4-dioxo-5,6-dihydro-4H-4lambda6-[1,4,3]oxathiazin-2-ylamino}-3-(2-fluorophenyl)-propan-1-ol] | 11 |
| CC1(C)OC(N[C@@H](CCO)c2ccccc2F)=NS(=O)(=O)C1(C)c1cccc(-c2ccccc2)c1 (single isomer, unassigned) [Example 74] | 12 |
| CNCCCc1ccc(C2C(C)(C)OC(N[C@@H](CCO)c3ccccc3F)=NS2(=O)=O)cc1 (stereo partly drawn) [Example 117, (S)-3-{6,6-Dimethyl-5-[4-(3-methylamino-propyl)-phenyl]-4,4-dioxo-5,6-dihydro-4H-4lambda6-[1,4,3]oxathiazin-2-ylamino}-3-(2-fluorophenyl)-propan-1-ol] | 23 |
| CC(C)(C)c1ccc(C2C(C)(C)OC(N[C@@H](CCO)c3ccccc3F)=NS2(=O)=O)cc1 (stereo partly drawn) [Compound 58, (S)-3-[5-(4-tert-Butylphenyl)-6,6-dimethyl-4,4-dioxo-5,6-dihydro-4H-4lambda6-[1,4,3]oxathiazin-2-ylamino]-3-(2-fluorophenyl)propan-1-ol] | 21 |
| CC1(C)OC(N[C@@H](CCO)c2ccccc2F)=NS(=O)(=O)C1c1ccc(CCN2CCOCC2)cc1 (some centres unmarked) [Example 140] | 69 |
| CC1(C)OC(N[C@@H](CCO)c2ccccc2F)=NS(=O)(=O)C1c1ccc(-c2ccncc2)cc1 (stereo partly drawn) [Example 119, (S)-3-[6,6-Dimethyl-4,4-dioxo-5-(4-pyridin-4-yl-phenyl)-5,6-dihydro-4H-4lambda6-[1,4,3]oxathiazin-2-ylamino]-3-(2-fluorophenyl)-propan-1-ol] | 6 |
| C[C@H](NC1=NS(=O)(=O)C(C)(c2cccc(-c3cncnc3)c2)C(C)(C)O1)c1ccccc1F (stereo partly drawn) [Compound 41, [(S)-1-(2-Fluorophenyl)ethyl]-[5,6,6-trimethyl-4,4-dioxo-5-(3-pyrimidin-5-ylphenyl)-5,6-dihydro-4H-4lambda6-[1,4,3]oxathiazin-2-yl]amine] | 10 |
| CC1(C)OC(N[C@@H](CCO)c2ccccc2)=NS(=O)(=O)C1(C)c1ccc(-c2ccccc2)cc1 (stereo partly drawn) [Example 54, (S)-3-(5-Biphenyl-4-yl-5,6,6-trimethyl-4,4-dioxo-5,6-dihydro-4H-4lambda6-[1,4,3]oxathiazin-2-ylamino)-3-phenyl-propan-1-ol] | 9 |
| CC1(C)OC(N[C@@H](CCO)c2ccccc2F)=NS(=O)(=O)[C@H]1c1ccc(-c2ccnc(C(N)=O)c2)cc1 [Example 188, 4-(4-{(S)-2-[(S)-1-(2-fluorophenyl)-3-hydroxy-propylamino]-6,6-dimethyl-4,4-dioxo-5,6-dihydro-4H-4lambda6-[1,4,3]oxathiazin-5-yl}-phenyl)-pyridine-2-carboxamide] | 7 |
| CC1(C)OC(N[C@@H](CCO)c2ccccc2F)=NS(=O)(=O)C1c1ccc(C2CCN(CCO)CC2)cc1 (some centres unmarked) [Example 104] | 28 |
| C[C@H](NC1=NS(=O)(=O)C(c2ccc(C(C)(C)O)cc2)C(C)(C)O1)c1ccccc1F (stereo partly drawn) [Example 162, 2-(4-{2-[(S)-1-(2-fluorophenyl)-ethylamino]-6,6-dimethyl-4,4-dioxo-5,6-dihydro-4H-4lambda6-[1,4,3]oxathiazin-5-yl}-phenyl)-propan-2-ol] | 52 |
| COc1ccc(-c2ccc(C3C(C)(C)OC(N[C@@H](CCO)c4ccccc4F)=NS3(=O)=O)cc2)cc1 (stereo partly drawn) [Example 66, (S)-3-(2-Fluorophenyl)-3-[5-(4′-methoxy-biphenyl-4-yl)-6,6-dimethyl-4,4-dioxo-5,6-dihydro-4H-4lambda6-[1,4,3]oxathiazin-2-ylamino]-propan-1-ol] | 23 |
| CC1(C)OC(N[C@@H](CCO)c2ccccc2F)=NS(=O)(=O)C1c1ccc(C2CCN(C(C)(C)C)CC2)cc1 (stereo partly drawn) [Example 151, (S)-3-{5-[4-(1-tert-Butyl-piperidin-4-yl)-phenyl]-6,6-dimethyl-4,4-dioxo-5,6-dihydro-4H-4lambda6-[1,4,3]oxathiazin-2-ylamino}-3-(2-fluorophenyl)-propan-1-ol] | 34 |
| CC(C)(C)c1ccc(C2C(C)(C)OC(N[C@@H](CCO)c3ccccc3F)=NS2(=O)=O)cc1 (single isomer, unassigned) [Example 85] | 9 |
| O=S1(=O)N=C(N[C@@H](CCO)c2ccccc2F)OC2(COC2)C1c1ccc(-c2ccccc2)cc1 (stereo partly drawn) [Example 76, (S)-3-(9-Biphenyl-4-yl-8,8-dioxo-2,5-dioxa-8lambda6-thia-7-aza-spiro[3.5]non-6-en-6-ylamino)-3-(2-fluorophenyl)-propan-1-ol] | 332 |
